This data set deals with Hepatotoxicity. Nature of the data set: Literature-mined public compounds from Greene et al multi-species hepatotoxicity modelling dataset.
Take `C=C1CC[C@H](O)C/C1=C/C=C1\CCC[C@]2(C)[C@@H]([C@H](C)/C=C/[C@H](C)C(C)C)CC[C@@H]12` [ERGOCALCIFEROL]: the Hepatotoxicity result is listed as “NE: No evidence of hepatotoxicity in any species”. For the compound `C[C@@H](CO)NC(=O)[C@@H]1C=C2c3cccc4[nH]cc(c34)C[C@H]2N(C)C1.O=C(O)/C=C\C(=O)O` [ERGONOVINE MALEATE], the Hepatotoxicity result was “NE: No evidence of hepatotoxicity in any species”. `CN1C[C@H](C(=O)N[C@]2(C)O[C@@]3(O)[C@@H]4CCCN4C(=O)[C@H](Cc4ccccc4)N3C2=O)C=C2c3cccc4[nH]cc(c34)C[C@H]21.CN1C[C@H](C(=O)N[C@]2(C)O[C@@]3(O)[C@@H]4CCCN4C(=O)[C@H](Cc4ccccc4)N3C2=O)C=C2c3cccc4[nH]cc(c34)C[C@H]21.O=C(O)C(O)C(O)C(=O)O` [ERGOTAMINE TARTRATE]: the Hepatotoxicity entry was “NE: No evidence of hepatotoxicity in any species”. Take `CCC(=O)O[C@H]1[C@H](O[C@@H]2[C@@H](C)[C@H](O[C@H]3C[C@@](C)(OC)[C@@H](O)[C@H](C)O3)[C@@H](C)C(=O)O[C@H](CC)[C@@](C)(O)[C@H](O)[C@@H](C)C(=O)[C@H](C)C[C@@]2(C)O)O[C@H](C)C[C@@H]1N(C)C.CCCCCCCCCCCCOS(=O)(=O)O` [ERYTHROMYCIN ESTOLATE]: the Hepatotoxicity result is recorded as “HH: Evidence of human hepatotoxicity”. Regarding `CC[C@H]1OC(=O)[C@H](C)[C@@H](O[C@H]2C[C@@](C)(OC)[C@@H](O)[C@H](C)O2)[C@H](C)[C@@H](O[C@@H]2O[C@H](C)C[C@H](N(C)C)[C@H]2O)[C@](C)(O)C[C@@H](C)C(=O)[C@H](C)[C@@H](O)[C@]1(C)O` [ERYTHROMYCIN], the Hepatotoxicity entry was “WE: Weak evidence (<10 case reports) of human hepatotoxicity”. Then `C[C@]12CC[C@@H]3c4ccc(O)cc4CC[C@H]3[C@@H]1CC[C@@H]2O[C@@H]1O[C@H](C(=O)O)[C@@H](O)[C@H](O)[C@H]1O` [ESTRADIOL 17B GLUCURONIDE], with “HH: Evidence of human hepatotoxicity”; and `C[C@]12CC[C@@H]3c4ccc(O)cc4CC[C@H]3[C@@H]1CC[C@@H]2O` [ESTRADIOL], with “WE: Weak evidence (<10 case reports) of human hepatotoxicity”. For `C[C@]12CC[C@@H]3c4ccc(O)cc4CC[C@H]3[C@@H]1CCC2=O` [ESTRONE] the value was “HH: Evidence of human hepatotoxicity”. Take `CS(=O)(=O)OCCOS(C)(=O)=O` [ETHANE DIMETHANE SULFONATE]: the Hepatotoxicity result is recorded as “AH: Evidence for animal hepatotoxicity but not tested in humans”. For `C#C[C@]1(O)CC[C@H]2[C@@H]3CCc4cc(O)ccc4[C@H]3CC[C@@]21C` [ETHINYL ESTRADIOL] the value was “HH: Evidence of human hepatotoxicity”; for `CCC1(C)CC(=O)NC1=O` (stereo unspecified) [ETHOSUXIMIDE], “HH: Evidence of human hepatotoxicity”.

Regarding `OCCO` [ETHYLENE GLYCOL], the Hepatotoxicity entry was “AH: Evidence for animal hepatotoxicity but not tested in humans”. Then `C#C[C@]1(OC(C)=O)CC[C@H]2[C@@H]3CCC4=C[C@@H](OC(C)=O)CC[C@@H]4[C@H]3CC[C@@]21C` [ETHYNODIOL DIACETATE], with “HH: Evidence of human hepatotoxicity”; and `COc1cc([C@@H]2c3cc4c(cc3[C@@H](O[C@@H]3O[C@@H]5CO[C@@H](C)O[C@H]5[C@H](O)[C@H]3O)[C@H]3COC(=O)[C@H]23)OCO4)cc(OC)c1O` [ETOPOSIDE], with “HH: Evidence of human hepatotoxicity”; and `NC(N)=Nc1nc(CSCCC(N)=NS(N)(=O)=O)cs1` [FAMOTIDINE], with “WE: Weak evidence (<10 case reports) of human hepatotoxicity”.

Consider `NC(=O)OCC(COC(N)=O)c1ccccc1` [FELBAMATE], for which the Hepatotoxicity entry is “HH: Evidence of human hepatotoxicity”. As for `CC(C)OC(=O)C(C)(C)Oc1ccc(C(=O)c2ccc(Cl)cc2)cc1` [FENOFIBRATE], the Hepatotoxicity entry is “HH: Evidence of human hepatotoxicity”. Consider `CC(C(=O)[O-])c1cccc(Oc2ccccc2)c1.[Na+]` (stereo unspecified) [FENOPROFEN SODIUM], for which the Hepatotoxicity entry was “HH: Evidence of human hepatotoxicity”. `CC(C)(C(=O)O)c1ccc(C(O)CCCN2CCC(C(O)(c3ccccc3)c3ccccc3)CC2)cc1` (stereo unspecified) [FEXOFENADINE]: the Hepatotoxicity result is listed as “NE: No evidence of hepatotoxicity in any species”. For the compound `O=c1[nH]c(=O)n([C@@H]2O[C@H](CO)[C@@H](O)[C@@H]2F)cc1I` [FIALURIDINE], the Hepatotoxicity result was “HH: Evidence of human hepatotoxicity”.

As to `O=C(COc1ccc(Cl)cc1)N1CCN(Cc2ccc3c(c2)OCO3)CC1` [FIPEXIDE], the Hepatotoxicity result is reported as “HH: Evidence of human hepatotoxicity”. In the case of `CC(=O)O.O=C(NCC1CCCCN1)c1cc(OCC(F)(F)F)ccc1OCC(F)(F)F` (stereo unspecified) [FLECAINIDE ACETATE], the Hepatotoxicity result was “HH: Evidence of human hepatotoxicity”.

Regarding `O=c1[nH]c(=O)n([C@H]2C[C@H](O)[C@@H](CO)O2)cc1F` [FLOXURIDINE], the Hepatotoxicity result is “HH: Evidence of human hepatotoxicity”.

Turning to `OC(Cn1cncn1)(Cn1cncn1)c1ccc(F)cc1F` [FLUCONAZOLE], the Hepatotoxicity entry is recorded as “HH: Evidence of human hepatotoxicity”. In the case of `Nc1nc(=O)[nH]cc1F` [FLUCYTOSINE], the Hepatotoxicity entry was “HH: Evidence of human hepatotoxicity”. As for `CC(=O)OCC(=O)[C@@]1(O)CC[C@H]2[C@@H]3CCC4=CC(=O)CC[C@]4(C)[C@@]3(F)[C@@H](O)C[C@@]21C` [FLUDROCORTISONE ACETATE], the Hepatotoxicity result was “NE: No evidence of hepatotoxicity in any species”. On to `O=C(O)c1ccccc1Nc1cccc(C(F)(F)F)c1` [FLUFENAMIC ACID], for which the Hepatotoxicity entry is reported as “WE: Weak evidence (<10 case reports) of human hepatotoxicity”. With `CCOC(=O)c1ncn2c1CN(C)C(=O)c1cc(F)ccc1-2` [FLUMAZENIL], the Hepatotoxicity result is listed as “NE: No evidence of hepatotoxicity in any species”.

For `C[C@H](C(=O)O)c1ccc2oc(-c3ccc(F)cc3)nc2c1` [FLUNOXAPROFEN], the Hepatotoxicity entry is listed as “WE: Weak evidence (<10 case reports) of human hepatotoxicity”. On to `O=c1[nH]cc(F)c(=O)[nH]1` [FLUOROURACIL], for which the Hepatotoxicity result is listed as “HH: Evidence of human hepatotoxicity”. As for `CC(C(=O)O)c1ccc(-c2ccccc2)c(F)c1` (stereo unspecified) [FLURBIPROFEN], the Hepatotoxicity result is given as “HH: Evidence of human hepatotoxicity”. Turning to `CC(C)C(=O)Nc1ccc([N+](=O)[O-])c(C(F)(F)F)c1` [FLUTAMIDE], the Hepatotoxicity result is listed as “HH: Evidence of human hepatotoxicity”. For `COCCCC/C(=N\OCCN)c1ccc(C(F)(F)F)cc1` [FLUVOXAMINE], the Hepatotoxicity result is “HH: Evidence of human hepatotoxicity”. As for `Nc1nc2ncc(CNc3ccc(C(=O)N[C@@H](CCC(=O)O)C(=O)O)cc3)nc2c(=O)[nH]1` [FOLIC ACID], the Hepatotoxicity entry is listed as “NE: No evidence of hepatotoxicity in any species”.

Take `O=C(O)P(=O)(O)O` [FOSCARNET]: the Hepatotoxicity result is on record as “NE: No evidence of hepatotoxicity in any species”.

With `O=C1OCCN1/N=C/c1ccc([N+](=O)[O-])o1` [FURAZOLIDONE], the Hepatotoxicity entry was “HH: Evidence of human hepatotoxicity”. For `NCC1(CC(=O)O)CCCCC1` [GABAPENTIN], the Hepatotoxicity result is “NE: No evidence of hepatotoxicity in any species”. For `CC[N+](CC)(CC)CCOc1cccc(OCC[N+](CC)(CC)CC)c1OCC[N+](CC)(CC)CC.[I-].[I-].[I-]` [GALLAMINE TRIETHIODIDE] the value was “NE: No evidence of hepatotoxicity in any species”; for `COc1c(N2CCNC(C)C2)c(F)cc2c(=O)c(C(=O)O)cn(C3CC3)c12` (stereo unspecified) [GATIFLOXACIN], “WE: Weak evidence (<10 case reports) of human hepatotoxicity”; for `Cc1ccc(C)c(OCCCC(C)(C)C(=O)O)c1` [GEMFIBROZIL], “HH: Evidence of human hepatotoxicity”. For `O=C(OCC(O)CO)c1ccccc1Nc1ccnc2cc(Cl)ccc12` (stereo unspecified) [GLAFENINE], the Hepatotoxicity entry is “HH: Evidence of human hepatotoxicity”. Then `Cc1ccc(S(=O)(=O)NC(=O)NN2CC3CCCC3C2)cc1` (stereo unspecified) [GLICLAZIDE], with “WE: Weak evidence (<10 case reports) of human hepatotoxicity”; and `CCC1=C(C)CN(C(=O)NCCc2ccc(S(=O)(=O)NC(=O)N[C@H]3CC[C@H](C)CC3)cc2)C1=O` [GLIMEPIRIDE], with “WE: Weak evidence (<10 case reports) of human hepatotoxicity”. Consider `N[C@H]1C(O)O[C@H](CO)[C@@H](O)[C@@H]1O` (stereo partly specified) [GLUCOSAMINE], for which the Hepatotoxicity result is “AH: Evidence for animal hepatotoxicity but not tested in humans”. As for `CCC1(c2ccccc2)CCC(=O)NC1=O` (stereo unspecified) [GLUTETHIMIDE], the Hepatotoxicity entry is “HH: Evidence of human hepatotoxicity”. `Cc1c(F)c(N2CCNC(C)C2)cc2c1c(=O)c(C(=O)O)cn2C1CC1` (stereo unspecified) [GREPAFLOXACIN]: the Hepatotoxicity result is “HH: Evidence of human hepatotoxicity”.

For `COC1=CC(=O)C[C@@H](C)[C@]12Oc1c(Cl)c(OC)cc(OC)c1C2=O` [GRISEOFULVIN], the Hepatotoxicity result was “HH: Evidence of human hepatotoxicity”. Regarding `N=C(N)NCCN1CCCCCCC1.N=C(N)NCCN1CCCCCCC1.O=S(=O)(O)O` [GUANETHIDINE SULFATE], the Hepatotoxicity result is on record as “HH: Evidence of human hepatotoxicity”. For `ClC(Cl)=C(Cl)C(Cl)=C(Cl)Cl` [HEXACHLOROBUTADIENE] the value was “AH: Evidence for animal hepatotoxicity but not tested in humans”; for `Oc1c(Cl)cc(Cl)c(Cl)c1Cc1c(O)c(Cl)cc(Cl)c1Cl` [HEXACHLOROPHENE], “HH: Evidence of human hepatotoxicity”.

Take `CCN(CC)CCNc1ccc(CO)c2sc3ccccc3c(=O)c12` [HYCANTHONE]: the Hepatotoxicity entry is recorded as “HH: Evidence of human hepatotoxicity”. Regarding `NN` [HYDRAZINE], the Hepatotoxicity entry is given as “AH: Evidence for animal hepatotoxicity but not tested in humans”. Turning to `NS(=O)(=O)c1cc2c(cc1Cl)NCNS2(=O)=O` [HYDROCHLOROTHIAZIDE], the Hepatotoxicity result is recorded as “HH: Evidence of human hepatotoxicity”.

As to `NC(=O)NO` [HYDROXYUREA], the Hepatotoxicity result is “HH: Evidence of human hepatotoxicity”.

Regarding `CC(C)Cc1ccc(CC(=O)O)cc1` [IBUFENAC], the Hepatotoxicity result is recorded as “HH: Evidence of human hepatotoxicity”. `CC(C)Cc1ccc(C(C)C(=O)O)cc1` (stereo unspecified) [IBUPROFEN]: the Hepatotoxicity result is recorded as “WE: Weak evidence (<10 case reports) of human hepatotoxicity”.

These data come from ChEMBL document CHEMBL1697692, “Developing structure-activity relationships for the prediction of hepatotoxicity” (Chem Res Toxicol, 2010).
